The values below come from ChEMBL document CHEMBL2169752, “Kallikrein protease activated receptor (PAR) axis: an attractive target for drug development” (J Med Chem, 2012).

One may read the Ki as the dissociation constant of the complex between target and ligand, obtained from inhibition or displacement. Low readings indicate higher affinity, high ones lower affinity.

For test [1], the target named is T1, Kallikrein-1 (Homo sapiens, UniProt P06870). The test can be described thus: Inhibition of human KLK1 using Pro-Phe-Arg-MCA as substrate for 2 mins by spectrophotometric analysis.
T1 sequence (P06870 whole entry): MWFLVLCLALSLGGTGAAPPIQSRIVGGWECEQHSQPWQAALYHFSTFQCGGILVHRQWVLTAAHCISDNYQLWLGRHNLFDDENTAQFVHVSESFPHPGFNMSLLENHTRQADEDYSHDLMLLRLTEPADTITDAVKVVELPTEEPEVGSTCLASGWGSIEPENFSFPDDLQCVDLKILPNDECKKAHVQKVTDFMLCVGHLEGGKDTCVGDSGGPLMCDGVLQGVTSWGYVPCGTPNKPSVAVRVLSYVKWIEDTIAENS
Test [2] deals with T1, Kallikrein-1. The test can be described thus: Inhibition of human KLK1.
Test [3] addresses T2, Prostate-specific antigen (Homo sapiens, UniProt P07288).
T2 sequence (P07288 whole entry): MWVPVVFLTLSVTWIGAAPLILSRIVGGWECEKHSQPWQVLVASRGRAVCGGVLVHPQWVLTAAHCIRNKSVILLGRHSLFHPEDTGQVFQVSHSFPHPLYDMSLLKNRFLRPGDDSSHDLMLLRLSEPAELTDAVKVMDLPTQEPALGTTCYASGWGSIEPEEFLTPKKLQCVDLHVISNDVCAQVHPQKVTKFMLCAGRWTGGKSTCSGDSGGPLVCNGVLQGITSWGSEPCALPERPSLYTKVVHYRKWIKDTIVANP
The test can be described thus: Inhibition of KLK3.

Numbered stars: 1 amine (or outer) side, 2 acyl side, 3 side chain; on linkers, the order of the positions; unused ones are H or OH. Square brackets hold non-standard residues; d marks the D form. Peptide text beside a SMILES is read from it. * marks the point of attachment. EDDnp = O=[N+]([O-])c1ccc(NCCN*)c([N+](=O)[O-])c1; X1 = NCC1CCC(C[C@H](N[*:1])C(=O)[*:2])CC1; 2Abz = Nc1ccccc1C(=O)O

As to `CC(=O)N[C@H](CCCCN)C(=O)N[C@@H](Cc1ccccc1)C(=O)N[C@@H](Cc1ccccc1)C(=O)N1CCC[C@H]1C(=O)N[C@@H](CC(C)C)C(=O)N[C@@H](CCC(=O)O)C(N)=O`, the affinity in test [1] corresponds to a Ki of 8 nM.

Take `NC(=O)[C@H](CCCN=C(N)N)NC(=O)[C@H](CO)NC(=O)[C@H](CC1CCC(N)CC1)NC(=O)Cc1ccccc1` (mixture of isomers): the Ki in test [2] was found to be 110 nM.

The compound `Cc1c(-c2nc3ccccc3c(=O)o2)cccc1[N+](=O)[O-]` gave a Ki in test [3] of 300 nM.

As for `COc1ccc(C(=O)n2nc(-c3cccnc3)nc2C)cc1OC`, in test [3], the affinity, expressed as Ki, was 500 nM.

In turn, `N=C(N)NCCC[C@H](NC(=O)[C@H](CO)NC(=O)[C@H](CC1CCC(CN)CC1)NC(=O)[C@H](Cc1ccccc1)NC(=O)c1ccccc1N)C(=O)N[C@@H](CCC(N)=O)C(=O)NCCNc1ccc([N+](=O)[O-])cc1[N+](=O)[O-]` (stereo not given in full) (H-[2Abz]F[X1]SRQ-EDDnp) gave a Ki in test [2] of 50 nM.
